Source: ChEMBL document CHEMBL1158794, “A cytotoxic xanthone dimer from the entomopathogenic fungus Aschersonia sp. BCC 8401” (J Nat Prod, 2005)
Converted amounts (≈) assume the structure as drawn.

Tests used:
KB = test: Cytotoxicity against human KB cells by SRB assay; assay type: functional, cell-based
[1] = Cytotoxicity against human BC cells by SRB assay; assay type: functional, cell-based
Vero = test: Cytotoxicity against african green monkey Vero cells by SRB assay; assay type: cell-based; settings: Chlorocebus sabaeus
Plasmodium falciparum = test: Antiplasmodial activity against multidrug-resistant Plasmodium falciparum K1 by [3H]hypoxanthine uptake; assay type: functional, organism-based
NCI-H187 = test: Cytotoxicity against human NCI-H187 cells by SRB assay; assay type: functional, cell-based

CO[C@H]1CC=C2C(=O)c3c(cc(C)c(-c4c(C)cc5c(c4O)C(=O)C4=CC[C@H](OC)[C@@H](O)[C@]4(C)O5)c3O)O[C@@]2(C)[C@@H]1O [ASCHERXANTHONE A]
IC50 (KB): 1.7 µg/mL (≈ 2.94 µM) | IC50 [1]: 1.7 µg/mL (≈ 2.94 µM) | IC50 (Vero): 0.8 µg/mL (≈ 1.38 µM) | IC50 (Plasmodium falciparum): 0.2 µg/mL (≈ 0.346 µM) | IC50 (NCI-H187): 0.16 µg/mL (≈ 0.277 µM)
